The target of this test is T1, 2'-deoxynucleoside 5'-phosphate N-hydrolase 1 (Rattus norvegicus, UniProt O35820).
T1 sequence (O35820 whole entry): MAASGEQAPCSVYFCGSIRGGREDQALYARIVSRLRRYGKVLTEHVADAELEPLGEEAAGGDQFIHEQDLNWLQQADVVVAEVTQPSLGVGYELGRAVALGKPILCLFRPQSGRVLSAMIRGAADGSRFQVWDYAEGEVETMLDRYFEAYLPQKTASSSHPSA
The test is described as follows: Inhibition Assay. From the text: Rcl inhibition by nucleotides.
As a reminder, the Ki is a measure of affinity in units of concentration, obtained from inhibition or displacement. Read a low Ki as a stronger hold on the target. `O=c1[nH]c(=O)c2ncn(C3OC(COP(=O)(O)O)C(O)C3O)c2[nH]1` (centres undefined) [XMP] had a Ki of 54 µM.

Turning to `Nc1nc(=O)c2ncn(COCCOP(=O)(O)O)c2[nH]1` [Acyclovir 5'-monophosphate], the Ki stood at 57 µM. The Ki values of the last two compounds are within 1.5-fold of each other. Take `Nc1ncnc2c1ncn2C1OC(COP(O)(O)=S)C(O)C1O` (centres undefined) [5'-AMPS]: the Ki came out at 14 µM. The result for `NC(=O)c1ncn(C2OC(COP(=O)(O)O)C(O)C2O)c1N` (centres undefined) [[5-(5-amino-4-carbamoyl-1H-imidazol-1-yl)-3,4-dihydroxyoxolan-2-yl]methyl phosphate] reads 52 µM.

The record behind these values is BindingDB's records for doi:10.1074/jbc.M110.181594 (Institut Pasteur, 2010).
